Measurements taken from patent US11214594B2, “Antimicrobial peptide having synergistic antibacterial effect with antibiotics on multidrug resistant bacteria, and use thereof” (priority 2016, dated 2022).
≈ marks a conversion by molar mass, not a printed value. Where a SMILES comes first, the peptide text is derived from it. [ ]: non-standard residue; d: D form.

Tests used:
A. baumannii [1] = assay: microbe, parasite or virus in culture; type: cell-based, Acinetobacter baumannii
Procedure, shortened: (§1)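 Each strain is brought to 2×10^6 CFU in nutrient-sufficient Mueller-Hinton medium and dispensed into wells. Peptide solutions, stepwise diluted 2:1 in the same medium, are then added. The minimal concentration preventing growth gives the MIC.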

MDRAB 12035 = assay: microbe, parasite or virus in culture; type: cell-based, Acinetobacter baumannii
Procedure, shortened: as §1

S. typhimurium = assay: microbe, parasite or virus in culture; type: cell-based, Salmonella typhimurium
Procedure, shortened: as §1

S. aureus = assay: microbe, parasite or virus in culture; type: cell-based, Staphylococcus aureus
Procedure, shortened: as §1

MDREC 1229 = assay: MIC of antibiotic during combined treatment with antimicrobial peptide; type: cell-based, Escherichia coli
Description: Specifically, the strains described in [Table 2] were prepared and diluted with an MH medium such that the number of bacteria was 2×10^6 colony-forming units (CFUs) per 1 ml, 100 μl of the diluted strains was each aliquoted into a 96-well microtiter plate, and then 50 μl of a peptide solution diluted with the MH medium from the MIC value (solution diluted stepwise at 2: 1) was added to each well. Thereafter, the MIC value of each mixed solution was determined by diluting the antibiotic solution with the MH medium, adding 50 μl of the diluted solution to each well, and performing an experiment even under a reversed condition.

A. baumannii [2] = assay: as above; type: cell-based, Acinetobacter baumannii; conditions: for Synergistic effect of antibacterial activity with existing antibiotics compared with PapMA-1: A. baumannii and MDRAB 12035; for Antibiotic MIC, Erythromycin / Antibiotic MIC, Linezolid / Antibiotic MIC, Vancomycin: A. baumannii
Procedure, shortened: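 Read-out is the MIC of each combined solution, obtained from MH-medium dilutions of antibiotic added well by well, with a reversed-condition run as well.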

[3] = peptide treatment concentration 1 μg/ml
[4] = peptide treatment concentration 2 μg/ml
[5] = peptide treatment concentration 4 μg/ml
[6] = peptide treatment concentration 6 μg/ml
[7] = peptide treatment concentration 8 μg/ml
[8] = peptide treatment concentration 16 μg/ml
[9] = peptide treatment concentration 32 μg/ml
[10] = peptide treatment concentration 64 μg/ml
[11] = combined with peptide at 1 μg/ml
[12] = combined with peptide at 2 μg/ml
[13] = combined with peptide at 4 μg/ml
[14] = combined with peptide at 6 μg/ml
[15] = combined with peptide at 8 μg/ml
[16] = combined with peptide at 16 μg/ml
[17] = combined with peptide at 32 μg/ml
[18] = combined with peptide at 64 μg/ml

CC[C@H](C)[C@H](NC(=O)[C@H](CCCCN)NC(=O)[C@H](Cc1c[nH]c2ccccc12)NC(=O)[C@@H](N)CCCNC(=N)N)C(=O)N[C@@H](Cc1ccccc1)C(=O)N[C@@H](CCCCN)C(=O)N[C@@H](CCCCN)C(=O)N[C@H](C(=O)N[C@H](CCCCN)C(=O)N[C@@H](CCCCN)C(=O)N[C@@H](CC(C)C)C(=O)N[C@@H](CC(C)C)C(=O)N[C@@H](Cc1c[nH]cn1)C(=O)N[C@@H](CO)C(=O)N[C@@H](C)C(=O)N[C@@H](CCCCN)C(=O)N[C@@H](CCCCN)C(=O)N[C@@H](Cc1c[nH]c2ccccc12)C(N)=O)[C@@H](C)CC [PapMA-16, RWK IFK KIk KLL HSA KKW-NH2] (H-RWKIFKKI[dK]KLLHSAKKW-NH2; N-terminus assumed)
Minimal inhibitory concentration MIC (A. baumannii [1]): 32 µg/mL (≈ 13.7 µM) | Peptide MIC, peptide alone (A. baumannii [1]): 32 µg/mL | Minimal inhibitory concentration MIC (MDRAB 12035): 32 µg/mL (≈ 13.7 µM) | Peptide MIC, peptide alone (MDRAB 12035): 32 µg/mL | Minimal inhibitory concentration MIC (S. typhimurium): 64 µg/mL (≈ 27.4 µM) | Minimal inhibitory concentration MIC (S. aureus): >128 µg/mL | Antibiotic MIC, Erythromycin (MDREC 1229; [3]): >128 µg/mL | Antibiotic MIC, Linezolid (MDREC 1229; [3]): >128 µg/mL | Antibiotic MIC, Vancomycin (MDREC 1229; [3]): >128 µg/mL | Antibiotic MIC, Erythromycin (MDREC 1229; [4]): 64 µg/mL | Antibiotic MIC, Linezolid (MDREC 1229; [4]): >128 µg/mL | Antibiotic MIC, Vancomycin (MDREC 1229; [4]): >128 µg/mL | Antibiotic MIC, Erythromycin (MDREC 1229; [5]): 32 µg/mL | Antibiotic MIC, Linezolid (MDREC 1229; [5]): 64 µg/mL | Antibiotic MIC, Vancomycin (MDREC 1229; [5]): 128 µg/mL | Antibiotic MIC, Erythromycin (MDREC 1229; [6]): 4 µg/mL | Antibiotic MIC, Linezolid (MDREC 1229; [6]): 32 µg/mL | Antibiotic MIC, Vancomycin (MDREC 1229; [6]): 32 µg/mL | Antibiotic MIC, Erythromycin (MDREC 1229; [7]): 2 µg/mL | Antibiotic MIC, Linezolid (MDREC 1229; [7]): 16 µg/mL | Antibiotic MIC, Vancomycin (MDREC 1229; [7]): 16 µg/mL | Antibiotic MIC, Erythromycin (MDREC 1229; [8]): 1 µg/mL | Antibiotic MIC, Linezolid (MDREC 1229; [8]): 8 µg/mL | Antibiotic MIC, Vancomycin (MDREC 1229; [8]): 8 µg/mL | Antibiotic MIC, Erythromycin (MDREC 1229; [9]): 0.5 µg/mL | Antibiotic MIC, Linezolid (MDREC 1229; [9]): 4 µg/mL | Antibiotic MIC, Vancomycin (MDREC 1229; [9]): 4 µg/mL | Antibiotic MIC, Erythromycin (MDREC 1229; [10]): 0 µg/mL | Antibiotic MIC, Linezolid (MDREC 1229; [10]): 0 µg/mL | Antibiotic MIC, Vancomycin (MDREC 1229; [10]): 0 µg/mL | Synergistic effect of antibacterial activity with existing antibiotics compared with PapMA-1 (A. baumannii [2]): level similar to that of PapMA-1 peptide | Antibiotic MIC, Erythromycin (A. baumannii [2]; [11]): 32 µg/mL | Antibiotic MIC, Linezolid (A. baumannii [2]; [11]): >128 µg/mL | Antibiotic MIC, Vancomycin (A. baumannii [2]; [11]): >128 µg/mL | Antibiotic MIC, Erythromycin (A. baumannii [2]; [12]): 16 µg/mL | Antibiotic MIC, Linezolid (A. baumannii [2]; [12]): >128 µg/mL | Antibiotic MIC, Vancomycin (A. baumannii [2]; [12]): 128 µg/mL | Antibiotic MIC, Erythromycin (A. baumannii [2]; [13]): 8 µg/mL | Antibiotic MIC, Linezolid (A. baumannii [2]; [13]): 128 µg/mL | Antibiotic MIC, Vancomycin (A. baumannii [2]; [13]): 64 µg/mL | Antibiotic MIC, Erythromycin (A. baumannii [2]; [14]): 1 µg/mL | Antibiotic MIC, Linezolid (A. baumannii [2]; [14]): 32 µg/mL | Antibiotic MIC, Vancomycin (A. baumannii [2]; [14]): 32 µg/mL | Antibiotic MIC, Erythromycin (A. baumannii [2]; [15]): 0.5 µg/mL | Antibiotic MIC, Linezolid (A. baumannii [2]; [15]): 16 µg/mL | Antibiotic MIC, Vancomycin (A. baumannii [2]; [15]): 16 µg/mL | Antibiotic MIC, Erythromycin (A. baumannii [2]; [16]): 0.25 µg/mL | Antibiotic MIC, Linezolid (A. baumannii [2]; [16]): 8 µg/mL | Antibiotic MIC, Vancomycin (A. baumannii [2]; [16]): 8 µg/mL | Antibiotic MIC, Erythromycin (A. baumannii [2]; [17]): 0 µg/mL | Antibiotic MIC, Linezolid (A. baumannii [2]; [17]): 0 µg/mL | Antibiotic MIC, Vancomycin (A. baumannii [2]; [17]): 0 µg/mL | Antibiotic MIC, Erythromycin (A. baumannii [2]; [18]): 0 µg/mL | Antibiotic MIC, Linezolid (A. baumannii [2]; [18]): 0 µg/mL | Antibiotic MIC, Vancomycin (A. baumannii [2]; [18]): 0 µg/mL

CC[C@H](C)[C@H](NC(=O)[C@H](CCCCN)NC(=O)[C@H](Cc1c[nH]c2ccccc12)NC(=O)[C@@H](N)CCCNC(=N)N)C(=O)N[C@@H](Cc1ccccc1)C(=O)N[C@@H](CCCCN)C(=O)N[C@@H](CCCCN)C(=O)N[C@H](C(=O)N1CCC[C@H]1C(=O)N[C@@H](CCCCN)C(=O)N[C@@H](CC(C)C)C(=O)N[C@@H](CC(C)C)C(=O)N[C@@H](Cc1c[nH]cn1)C(=O)N[C@@H](CO)C(=O)N[C@@H](CC(C)C)C(=O)N[C@@H](CCCCN)C(=O)N[C@@H](CCCCN)C(=O)N[C@@H](Cc1c[nH]c2ccccc12)C(N)=O)[C@@H](C)CC [PapMA-10, RWK IFK KIP KLL HSL KKW-NH2] (H-RWKIFKKIPKLLHSLKKW-NH2; N-terminus assumed)
Minimal inhibitory concentration MIC (A. baumannii [1]): 16 µg/mL (≈ 6.81 µM) | Peptide MIC, peptide alone (A. baumannii [1]): 16 µg/mL | Minimal inhibitory concentration MIC (MDRAB 12035): 32 µg/mL (≈ 13.6 µM) | Peptide MIC, peptide alone (MDRAB 12035): 32 µg/mL | Minimal inhibitory concentration MIC (S. typhimurium): 16 µg/mL (≈ 6.81 µM) | Minimal inhibitory concentration MIC (S. aureus): >128 µg/mL | Antibiotic MIC, Erythromycin (MDREC 1229; [3]): >128 µg/mL | Antibiotic MIC, Linezolid (MDREC 1229; [3]): >128 µg/mL | Antibiotic MIC, Vancomycin (MDREC 1229; [3]): >128 µg/mL | Antibiotic MIC, Erythromycin (MDREC 1229; [4]): 64 µg/mL | Antibiotic MIC, Linezolid (MDREC 1229; [4]): >128 µg/mL | Antibiotic MIC, Vancomycin (MDREC 1229; [4]): >128 µg/mL | Antibiotic MIC, Erythromycin (MDREC 1229; [5]): 16 µg/mL | Antibiotic MIC, Linezolid (MDREC 1229; [5]): 128 µg/mL | Antibiotic MIC, Vancomycin (MDREC 1229; [5]): >128 µg/mL | Antibiotic MIC, Erythromycin (MDREC 1229; [6]): 8 µg/mL | Antibiotic MIC, Linezolid (MDREC 1229; [6]): 64 µg/mL | Antibiotic MIC, Vancomycin (MDREC 1229; [6]): >128 µg/mL | Antibiotic MIC, Erythromycin (MDREC 1229; [7]): 2 µg/mL | Antibiotic MIC, Linezolid (MDREC 1229; [7]): 64 µg/mL | Antibiotic MIC, Vancomycin (MDREC 1229; [7]): 128 µg/mL | Antibiotic MIC, Erythromycin (MDREC 1229; [8]): 1 µg/mL | Antibiotic MIC, Linezolid (MDREC 1229; [8]): 16 µg/mL | Antibiotic MIC, Vancomycin (MDREC 1229; [8]): 32 µg/mL | Antibiotic MIC, Erythromycin (MDREC 1229; [9]): 0.25 µg/mL | Antibiotic MIC, Linezolid (MDREC 1229; [9]): 8 µg/mL | Antibiotic MIC, Vancomycin (MDREC 1229; [9]): 16 µg/mL | Antibiotic MIC, Erythromycin (MDREC 1229; [10]): 0 µg/mL | Antibiotic MIC, Linezolid (MDREC 1229; [10]): 0 µg/mL | Antibiotic MIC, Vancomycin (MDREC 1229; [10]): 0 µg/mL | Synergistic effect of antibacterial activity with existing antibiotics compared with PapMA-1 (A. baumannii [2]): level similar to that of PapMA-1 peptide | Antibiotic MIC, Erythromycin (A. baumannii [2]; [11]): 32 µg/mL | Antibiotic MIC, Linezolid (A. baumannii [2]; [11]): >128 µg/mL | Antibiotic MIC, Vancomycin (A. baumannii [2]; [11]): >128 µg/mL | Antibiotic MIC, Erythromycin (A. baumannii [2]; [12]): 16 µg/mL | Antibiotic MIC, Linezolid (A. baumannii [2]; [12]): 128 µg/mL | Antibiotic MIC, Vancomycin (A. baumannii [2]; [12]): 64 µg/mL | Antibiotic MIC, Erythromycin (A. baumannii [2]; [13]): 8 µg/mL | Antibiotic MIC, Linezolid (A. baumannii [2]; [13]): 64 µg/mL | Antibiotic MIC, Vancomycin (A. baumannii [2]; [13]): 16 µg/mL | Antibiotic MIC, Erythromycin (A. baumannii [2]; [14]): 2 µg/mL | Antibiotic MIC, Linezolid (A. baumannii [2]; [14]): 32 µg/mL | Antibiotic MIC, Vancomycin (A. baumannii [2]; [14]): 16 µg/mL | Antibiotic MIC, Erythromycin (A. baumannii [2]; [15]): 0.5 µg/mL | Antibiotic MIC, Linezolid (A. baumannii [2]; [15]): 8 µg/mL | Antibiotic MIC, Vancomycin (A. baumannii [2]; [15]): 4 µg/mL | Antibiotic MIC, Erythromycin (A. baumannii [2]; [16]): 0 µg/mL | Antibiotic MIC, Linezolid (A. baumannii [2]; [16]): 0 µg/mL | Antibiotic MIC, Vancomycin (A. baumannii [2]; [16]): 0 µg/mL | Antibiotic MIC, Erythromycin (A. baumannii [2]; [17]): 0 µg/mL | Antibiotic MIC, Linezolid (A. baumannii [2]; [17]): 0 µg/mL | Antibiotic MIC, Vancomycin (A. baumannii [2]; [17]): 0 µg/mL | Antibiotic MIC, Erythromycin (A. baumannii [2]; [18]): 0 µg/mL | Antibiotic MIC, Linezolid (A. baumannii [2]; [18]): 0 µg/mL | Antibiotic MIC, Vancomycin (A. baumannii [2]; [18]): 0 µg/mL
